Measured values published in patent US20230023559A1, “ARYLMETHYLENE HETEROCYCLIC COMPOUNDS AS KV1.3 POTASSIUM SHAKER CHANNEL BLOCKERS” (D. E. Shaw Research, LLC, priority 2019, published 2023).
pIC50: −log10 of the molar value.

Molecular target: T1, Kv1.3 potassium channel (Homo sapiens, UniProt P22001)
T1 construct: expressed in transfected cells
Assay: Kv1.3 potassium channel blocker activity, automated whole-cell patch clamp (Patchliner)
Assay type: cell-based
Conditions: CHO-K1 cells stably expressing Kv1.3; whole cell current inhibition; read-out: Kv1.3_IC50
Procedure: The assay described below is used to evaluate the disclosed compound's activities as Kv1.3 potassium channel blockers.
CHO-K1 cells stably expressing Kv1.3 were grown in DMEM containing 10% heat-inactivated FBS, 1 mM Sodium Pyruvate, 2 mM L-Glutamine and G418 (500 μg/ml).
All compounds were dissolved in DMSO at 30 mM.
The currents were evoked by applying 100 ms depolarizing pulses from −90 mV (holding potential) to +40 mV were applied with 0.1 Hz frequency. […] 10 second breaks were used between pulse trains (see Table A below).
Data were sampled at 10 kHz without filtering. Passive leak currents were subtracted online using a P/4 procedure (HEKA Elektronik Dr. Schulze GmbH). […] Total compound incubation time before the next pulse train was not longer than 10 seconds. Peak current inhibition was observed during compound equilibration.

T1 sequence (P22001 whole entry): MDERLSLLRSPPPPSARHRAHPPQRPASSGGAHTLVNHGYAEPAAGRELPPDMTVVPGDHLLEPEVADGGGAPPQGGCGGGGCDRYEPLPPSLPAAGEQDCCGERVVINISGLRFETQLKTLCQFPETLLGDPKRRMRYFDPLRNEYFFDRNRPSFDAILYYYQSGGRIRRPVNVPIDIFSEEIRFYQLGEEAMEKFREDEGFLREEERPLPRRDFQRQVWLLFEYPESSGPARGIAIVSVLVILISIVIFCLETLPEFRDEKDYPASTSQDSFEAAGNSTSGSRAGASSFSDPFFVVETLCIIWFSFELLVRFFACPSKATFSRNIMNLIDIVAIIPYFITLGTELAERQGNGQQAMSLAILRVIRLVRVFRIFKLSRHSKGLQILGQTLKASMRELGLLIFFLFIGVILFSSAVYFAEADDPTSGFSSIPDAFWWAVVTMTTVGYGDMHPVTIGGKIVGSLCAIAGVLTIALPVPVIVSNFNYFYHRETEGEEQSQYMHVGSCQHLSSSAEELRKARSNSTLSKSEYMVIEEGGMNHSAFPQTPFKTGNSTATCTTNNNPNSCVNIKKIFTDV

Structure (SMILES) | pIC50
CC1(C)C[C@H]([C@H](N)c2cc(Cl)c(Cl)cc2O)CCN1 (single isomer, unassigned; diastereoisomer 2) [Compound 73, 2-(amino(2,2-dimethylpiperidin-4-yl)methyl)-4,5-dichlorophenol Trifluoroacetic Acid Diastereoisomer 2] | > 5.00
N[C@@H](c1cc(Cl)ccc1O)C1CCN(C(=O)[C@H](O)CO)CC1 [Compound 295, (2R)-1-[4-[(R)-amino(5-chloro-2-hydroxyphenyl)methyl]piperidin-1-yl]-2,3-dihydroxypropan-1-one] | > 5.00
Cc1cc(O)c([C@H](N)C2CCN(C(=O)c3ccc4c(c3)NC(=O)C4)CC2)cc1Cl [Compound 263, 6-[4-[(R)-amino (5-chloro-2-hydroxy-4-methylphenyl)methyl]piperidine-1-carbonyl]-1,3-dihydroindol-2-one trifluoroacetic acid] | > 6.30
CC(=O)N1CCC(C(Nc2ccccn2)c2cc(Cl)c(Cl)cc2O)CC1 (stereo not drawn) [Compound 27, 1-[4-[(4,5-dichloro-2-hydroxyphenyl)[(pyridin-2-yl)amino]methyl]piperidin-1-yl]ethan-1-one Trifluoroacetic Acid] | > 4.52
CS(=O)(=O)NC(c1cc(Cl)c(Cl)cc1O)C1CCNCC1 (stereo not drawn) [Compound 12, N-((4,5-dichloro-2-hydroxyphenyl)(piperidin-4-yl)methyl)methanesulfonamide] | > 5.00
OCC(c1cc(Cl)c(Cl)cc1O)C1CCNCC1 (stereo not drawn) [Compound 5, 4,5-dichloro-2-[2-hydroxy-1-(piperidin-4-yl)ethyl]phenol] | > 5.00
N[C@H](c1cc(Cl)c(Cl)cc1O)C1CCNCC1 (single isomer, unassigned) [Compound 15, Trifluoroacetic Acid] | > 5.00
N[C@@H](c1cc(Cl)c(Cl)cc1O)[C@@H]1CCCN(C(=O)[C@H](O)CO)CC1 (single isomer, unassigned; isomer 1) [Compound 333] | > 5.00
N[C@@H](c1cc(Cl)c(Cl)cc1O)C1CCN(C(=O)C2CNC(=O)O2)CC1 (stereo partly drawn) [Compound 261, 5-[4-[(R)-amino(4,5-dichloro-2-hydroxyphenyl)methyl]piperidine-1-carbonyl]-1,3-oxazolidin-2-one trifluoroacetic acid] | > 6.30
CN1CCC([C@@H](O)c2cc(Cl)c(Cl)cc2O)CC1 (single isomer, unassigned) [Compound 24] | > 5.00
Cc1cc(CN2CCC(C(N)c3cc(Cl)c(Cl)cc3O)CC2)no1 (stereo not drawn) [Compound 58, 2-[amino([1-[(5-methyl-1,2-oxazol-3-yl)methyl]piperidin-4-yl])methyl]-4,5-dichlorophenol Trifluoroacetic Acid] | > 5.00
N[C@@H](c1cc(Cl)c(Cl)cc1O)C1CCN(C(=O)[C@@H]2CNC(=O)CO2)CC1 [Compound 229, (6S)-6-[4-[(R)-amino(4,5-dichloro-2-hydroxyphenyl)methyl]piperidine-1-carbonyl]morpholin-3-one Trifluoroacetic Acid] | > 5.00
N[C@@H](c1cc(Cl)c(Cl)cc1O)[C@H]1CCN(C(=O)[C@H](O)CO)C1 (single isomer, unassigned; isomer 2) [Compound 312] | > 5.00
Cc1cc(O)c([C@H](N)C2CCN(C(=O)c3c[nH]c(=O)c4ccccc34)CC2)cc1Cl [Compound 325, 4-[4-[(R)-amino (5-chloro-2-hydroxy-4-methylphenyl)methyl]piperidine-1-carbonyl]-2H-isoquinolin-1-one trifluoroacetic acid] | > 6.30
N[C@H](c1cc(Cl)c(Cl)cc1O)[C@H]1CCN(C(=O)[C@H](O)CO)C1 (single isomer, unassigned; isomer 1) [Compound 308] | > 5.00
Cc1cc(O)c([C@H](N)C2CCN(C(=O)c3ccc4c(c3)CCC(=O)N4)CC2)cc1Cl [Compound 259, 6-[4-[(R)-amino (5-chloro-2-hydroxy-4-methylphenyl)methyl]piperidine-1-carbonyl]-3,4-dihydro-1H-quinolin-2-one trifluoroacetic acid] | > 6.30
CC(C)c1cc(O)c([C@H](N)C2CCN(C(=O)[C@H](O)CO)CC2)cc1Cl [Compound 282, (2R)-1-(4-((R)-amino(5-chloro-2-hydroxy-4-isopropylphenyl)methyl)piperidin-1-yl)-2,3-dihydroxypropan-1-one] | > 4.52
CN[C@@H](c1cc(Cl)c(Cl)cc1O)C1CCN(C(=O)[C@H](O)CO)CC1 [Compound 337, (2R)-1-[4-[(R)-(4,5-dichloro-2-hydroxyphenyl)(methylamino)methyl]piperidin-1-yl]-2,3-dihydroxypropan-1-one] | > 5.00

Structure (SMILES) | pIC50
C[C@](O)(c1cc(Cl)c(Cl)cc1O)C1CCNCC1 (single isomer, unassigned; isomer 2) [Compound 26, 4,5-dichloro-2-(1-hydroxy-1-(piperidin-4-yl)ethyl)phenol Isomer 2] | > 5.00
CC(C)C[C@@H](N)C(=O)N1CCC([C@@H](N)c2cc(Cl)c(Cl)cc2O)CC1 [Compound 94, (R)-2-amino-1-(4-((R)-amino(4,5-dichloro-2-hydroxyphenyl)methyl)piperidin-1-yl)-4-methylpentan-1-one trifluoroacetic acid] | > 6.30
N[C@H](c1cc(Cl)c(Cl)cc1O)C1CCN(C(=O)[C@H]2CCNC2)CC1 [Compound 79, (4-((S)-amino(4,5-dichloro-2-hydroxyphenyl)methyl)piperidin-1-yl)((S)-pyrrolidin-3-yl)methanone] | > 5.00
N[C@H](c1c(O)cc(Cl)c(Cl)c1F)C1CCN(C(=O)[C@H](O)CO)CC1 [Compound 287, (R)-1-(4-((S)-amino(3,4-dichloro-2-fluoro-6-hydroxyphenyl)methyl)piperidin-1-yl)-2,3-dihydroxypropan-1-one] | > 5.00
N[C@@H](c1cc(Cl)c(F)cc1O)C1CCN(C(=O)[C@H](O)CO)CC1 [Compound 285, (2R)-1-[4-[(R)-amino(5-chloro-4-fluoro-2-hydroxyphenyl)methyl]piperidin-1-yl]-2,3-dihydroxypropan-1-one Trifluoroacetic Acid] | > 5.00
Cc1cc(O)c([C@H](N)C2CCN(C(=O)c3ccc4c(c3)OCC(=O)N4)CC2)cc1Cl [Compound 265, 7-[4-[(R)-amino(5-chloro-2-hydroxy-4-methylphenyl)methyl]piperidine-1-carbonyl]-2,4-dihydro-1,4-benzoxazin-3-one trifluoroacetic acid] | > 6.30
CC(C)C[C@H](N)C(=O)N1CCC([C@@H](N)c2cc(Cl)c(Cl)cc2O)CC1 [Compound 93, (S)-2-amino-1-(4-((R)-amino (4,5-dichloro-2-hydroxyphenyl)methyl)piperidin-1-yl)-4-methylpentan-1-one] | > 5.00
CC(=O)N1CCC(C(c2cc(Cl)c(Cl)cc2O)N2CCCC2)CC1 (stereo not drawn) [Compound 23, 1-(4-((4,5-dichloro-2-hydroxyphenyl)(pyrrolidin-1-yl)methyl)piperidin-1-yl)ethanone Trifluoroacetic Acid] | > 5.00
N[C@@H](c1c(O)ccc(Cl)c1Cl)C1CCN(C(=O)[C@H](O)CO)CC1 [Compound 187, (2R)-1-[4-[(R)-amino(2,3-dichloro-6-hydroxyphenyl)methyl]piperidin-1-yl]-2,3-dihydroxypropan-1-one Trifluoroacetic Acid] | > 5.00
NC(=O)C(c1cc(Cl)c(Cl)cc1O)C1CCNCC1 (stereo not drawn) [Compound 18, 2-(4,5-dichloro-2-hydroxyphenyl)-2-(piperidin-4-yl)acetamide] | > 5.00
O=C1CCCN1C(c1cc(Cl)c(Cl)cc1O)C1CCNCC1 (stereo not drawn) [Compound 29, 1-((4,5-dichloro-2-hydroxyphenyl)(piperidin-4-yl)methyl)pyrrolidin-2-one Trifluoroacetic Acid] | > 5.00
CN1CCC([C@H](O)c2cc(Cl)c(Cl)cc2O)CC1 (single isomer, unassigned) [Compound 319] | > 5.00
N[C@@H](c1cc(Cl)c(C2CCC2)cc1O)C1CCN(C(=O)[C@H](O)CO)CC1 [Compound 288, (2R)-1-[4-[(R)-amino(5-chloro-4-cyclobutyl-2-hydroxyphenyl)methyl]piperidin-1-yl]-2,3-dihydroxypropan-1-one Trifluoroacetic Acid] | > 4.52
NC(=O)CCN1CCC(C(N)c2cc(Cl)c(Cl)cc2O)CC1 (stereo not drawn) [Compound 78] | > 5.00
CS(=O)(=O)N1CCC(C(N)c2cc(Cl)c(Cl)cc2O)CC1 (stereo not drawn) [Compound 71, 2-[amino(1-methanesulfonylpiperidin-4-yl)methyl]-4,5-dichlorophenol Trifluoroacetic Acid] | > 5.00
CC1(C)C[C@@H]([C@H](N)c2cc(Cl)c(Cl)cc2O)CCN1 (single isomer, unassigned; diastereoisomer 1) [Compound 72, 2-(amino(2,2-dimethylpiperidin-4-yl)methyl)-4,5-dichlorophenol Trifluoroacetic Acid Diastereoisomer 1] | > 4.52
CC[C@H](N)C(=O)N1CCC([C@@H](N)c2cc(Cl)c(Cl)cc2O)CC1 [Compound 91, (S)-2-amino-1-(4-((R)-amino(4,5-dichloro-2-hydroxyphenyl)methyl)piperidin-1-yl)butan-1-one trifluoroacetic acid] | > 6.30
N[C@@H](c1cc(Cl)c(Cl)cc1O)C1CCN(C(=O)c2c[nH]c(=O)[nH]c2=O)CC1 [Compound 252, 5-[4-[(R)-amino(4,5-dichloro-2-hydroxyphenyl)methyl]piperidine-1-carbonyl]-1,3-dihydropyrimidine-2,4-dione formic acid] | > 6.30
